Source: paper PMC11580438, “Enhanced cell stress response and protein degradation capacity underlie artemisinin resistance in Plasmodium falciparum” (mSphere, 2024)

Assays:
[1] = molecular target: T1, P. falciparum proteasome, β5 activity (20S CP / 26S) (Plasmodium falciparum, UniProt Q8IJT1); assay: Suc-LLVY-AMC cleavage in lysate of treated trophozoites; assay type: cell-based
T1 construct: gene PF3D7_1011400; native proteasome in NP-40 lysate of 26-30 hpi trophozoites; with Proteasome subunit beta type-7 (beta2 subunit); Proteasome subunit beta type-6 (beta1 subunit)
T1 sequence (Q8IJT1 entry or part of it): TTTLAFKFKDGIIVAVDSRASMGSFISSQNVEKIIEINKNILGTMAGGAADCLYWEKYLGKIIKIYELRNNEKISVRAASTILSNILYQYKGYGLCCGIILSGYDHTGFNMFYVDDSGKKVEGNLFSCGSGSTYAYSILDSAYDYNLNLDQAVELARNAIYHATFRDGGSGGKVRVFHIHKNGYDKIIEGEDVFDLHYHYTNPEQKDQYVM

[2] = tested on: T2, P. falciparum proteasome, β5 activity (20S CP / 26S); details: intact Kelch13 C580Y parasites treated 3 h, then lysed; direct action on the proteasome not shown; 6 µM substrate, pH 7.5, 37 °C; mutation in the neighbouring β2 subunit, β5 wild type
T2 construct: gene beta5

[3] = molecular target: T1, P. falciparum proteasome, β5 activity (20S CP / 26S); assay: Suc-LLVY-AMC cleavage in lysate of treated trophozoites; assay type: cell-based; details: intact parasites treated 3 h with 50 or 700 nM, then lysed; direct action on the proteasome not shown; non-specific alkylator; pH 7.5, 37 °C
[4] = molecular target: T3, P. falciparum proteasome, β2 activity (20S CP / 26S) (Plasmodium falciparum, UniProt Q8I6T3); assay: Ac-RLR-AMC cleavage in lysate of treated trophozoites; assay type: cell-based; details: intact parasites treated 3 h with 50 or 700 nM, then lysed; direct action on the proteasome not shown; non-specific alkylator; pH 7.5, 37 °C
T3 construct: gene PF3D7_1328100; native proteasome in NP-40 lysate of 26-30 hpi trophozoites; with Proteasome subunit beta type-5; Proteasome subunit beta type-6 (beta1 subunit)
T3 sequence (Q8I6T3 entry or part of it): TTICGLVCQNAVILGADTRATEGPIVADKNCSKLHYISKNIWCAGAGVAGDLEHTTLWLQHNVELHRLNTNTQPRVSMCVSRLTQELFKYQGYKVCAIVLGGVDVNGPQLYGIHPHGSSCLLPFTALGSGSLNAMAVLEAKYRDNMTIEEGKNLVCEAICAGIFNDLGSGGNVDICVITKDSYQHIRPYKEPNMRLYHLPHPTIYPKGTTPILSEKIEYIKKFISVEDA

[5] = molecular target: T4, P. falciparum proteasome, β1 activity (20S CP / 26S) (Plasmodium falciparum, UniProt Q8I0U7); assay: Ac-nLPnLD-AMC cleavage in lysate of treated trophozoites; assay type: cell-based; details: intact parasites treated 3 h with 50 or 700 nM, then lysed; direct action on the proteasome not shown; non-specific alkylator; pH 7.5, 37 °C
T4 construct: gene PF3D7_0931800; native proteasome in NP-40 lysate of 26-30 hpi trophozoites; with Proteasome subunit beta type-7 (beta2 subunit); Proteasome subunit beta type-5
T4 sequence (Q8I0U7 entry or part of it): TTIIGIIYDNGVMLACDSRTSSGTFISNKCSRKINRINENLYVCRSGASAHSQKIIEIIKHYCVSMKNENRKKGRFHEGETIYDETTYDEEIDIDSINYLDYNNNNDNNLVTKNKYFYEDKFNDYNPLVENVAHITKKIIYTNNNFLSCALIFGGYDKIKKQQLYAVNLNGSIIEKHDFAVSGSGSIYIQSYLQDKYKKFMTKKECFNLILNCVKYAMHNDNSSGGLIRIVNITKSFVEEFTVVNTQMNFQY

Row | Structure (SMILES) | inhibition at 3 µM [1] [%] | % inhibition at 3 μM [2] [%] | % activity [3] | % activity [4] | % activity [5]
1 | c1cc(C2CCC3(CC2)OOC2(O3)C3CC4CC(C3)CC2C4)ccc1OCCN1CCOCC1 (centres unmarked) [OZ439] | 28 | 52 | – | – | –
2 | C[C@@H]1CC[C@H]2[C@@H](C)C(O)O[C@@H]3O[C@@]4(C)CC[C@@H]1[C@]32OO4 (some centres unmarked) [DHA] | – | – | DHA inhibited all three catalytic subunits of proteasomes derived from Kelch13^WT | DHA inhibited all three catalytic subunits of proteasomes derived from Kelch13^WT | DHA inhibited all three catalytic subunits of proteasomes derived from Kelch13^WT
